Source: patent US8012949B2, “Bisphosphonate compounds and methods with enhanced potency for multiple targets including FPPS, GGPPS, and DPPS” (The Board of Trustees of the University of Illinois, priority 2004, dated 2011)
Like-named read-outs stand apart in the source and are kept apart here.

Columns and labels:
Vγ2Vδ2 T cells = experiment: γδ T cell activation (TNF-α release and proliferation); type: cell-based, human; conditions: Table 2, -log10(value, M); for EC50: Homo sapiens, T-cell, read-out: γδ T Cell Avg pED50 (converted)
Protocol: γδ T Cell Assays. Vγ2Vδ2 T cell TNF-α release and proliferation were performed basically as described previously^1. Briefly, to measure bioactivity for Vγ2Vδ2 T cells, the CD4^+ JN.24, CD4^+ HF.2, CD8αα^+ 12G12, or the CD4^−8^− HD.108 Vγ2Vδ2 T cell clones were stimulated with phosphoantigens in the presence of CP.EBV (an EBV transformed B cell line) for CD4^+ clones or Va-2 (a transformed fibroblast) for CD8αα^+ and CD4^−8^− clones. CP.EBV and Va-2 were fixed with 0.05% glutaraldehyde (EM grade, Sigma, Mo.) for use as APCs. […] Curve fitting minima for each experiment (e.g. TNF-α release from JN.24 cells) were determined using the Global Fitting technique, as implemented in Prism 4.0. Curve fitting maxima were optimized for each individual compound without the use of any constraints.

human DPPS = molecular target: T1, human DPPS (Homo sapiens, UniProt Q5T2R2); experiment: human DPPS enzyme inhibition; type: biochemical; conditions: Table 1, experimental; for Ki: read-out: DPPS_pKi (converted)
T1 construct: made in house
T1 sequence (Q5T2R2 1-415): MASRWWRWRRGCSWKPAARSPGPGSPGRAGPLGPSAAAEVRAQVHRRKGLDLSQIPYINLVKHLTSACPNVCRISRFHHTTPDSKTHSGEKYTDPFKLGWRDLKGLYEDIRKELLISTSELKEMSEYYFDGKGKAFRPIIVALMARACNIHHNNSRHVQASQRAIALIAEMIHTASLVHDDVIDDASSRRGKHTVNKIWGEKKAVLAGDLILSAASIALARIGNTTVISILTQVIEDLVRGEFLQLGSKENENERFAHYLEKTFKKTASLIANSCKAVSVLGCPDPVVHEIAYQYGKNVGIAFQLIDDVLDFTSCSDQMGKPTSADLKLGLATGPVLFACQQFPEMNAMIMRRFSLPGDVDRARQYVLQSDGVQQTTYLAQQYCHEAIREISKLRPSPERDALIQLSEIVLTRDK
T1 sequence (Q86YH6 1-399 partner): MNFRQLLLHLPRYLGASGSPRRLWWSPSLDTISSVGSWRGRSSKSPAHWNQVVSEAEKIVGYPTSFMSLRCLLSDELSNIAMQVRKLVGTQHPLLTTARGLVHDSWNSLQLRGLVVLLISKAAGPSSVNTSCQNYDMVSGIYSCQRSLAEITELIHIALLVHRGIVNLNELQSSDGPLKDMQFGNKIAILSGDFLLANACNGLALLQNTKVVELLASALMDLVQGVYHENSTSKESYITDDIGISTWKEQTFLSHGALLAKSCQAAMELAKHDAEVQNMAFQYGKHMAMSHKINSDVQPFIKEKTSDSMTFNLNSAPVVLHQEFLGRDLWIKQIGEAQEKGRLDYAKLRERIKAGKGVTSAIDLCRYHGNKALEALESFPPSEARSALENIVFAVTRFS
Excerpt: (§1) To test our polypharmaceutical hypothesis, we expressed three enzymes: human FPPS, GGPPS and DPPS, and tested each for their inhibition by a series of bisphosphonates.

[1] = tested on: SF-268 (central nervous system glioblastoma); experiment: SF-268 cell growth inhibition (MTT); type: cell-based, human; conditions: Table 1, experimental; for IC50: Homo sapiens, SF-268, read-out: SF-268 pIC50 (converted)
Excerpt: (§2) Cell Growth Inhibition Assays. […] A broth microdilution method was used to determine IC50 values for growth inhibition by each bisphosphonate. […] NBPs were typically initially dissolved in H2O (0.01 M) while NNBPs were typically dissolved in DMSO (0.01 M).
(§3) GraphPad PRISM® version 4.0 software for windows (GraphPad Software Inc., San Diego, Calif., www.graphpad.com) was used to fit the data to a rectangular hyperbolic function: I=(ImaxC)/(IC50+C); […]

human FPPS = molecular target: T2, human FPPS (Homo sapiens, UniProt P14324); experiment: human FPPS enzyme inhibition; type: biochemical; conditions: for FPPS pKi (M) / Ki: Table 1, experimental; for IC50: Table 9, read-out: H. sapiens FPPS IC50; for Ki: read-out: FPPS pKi (converted)
T2 construct: made in house
T2 sequence (P14324 1-419): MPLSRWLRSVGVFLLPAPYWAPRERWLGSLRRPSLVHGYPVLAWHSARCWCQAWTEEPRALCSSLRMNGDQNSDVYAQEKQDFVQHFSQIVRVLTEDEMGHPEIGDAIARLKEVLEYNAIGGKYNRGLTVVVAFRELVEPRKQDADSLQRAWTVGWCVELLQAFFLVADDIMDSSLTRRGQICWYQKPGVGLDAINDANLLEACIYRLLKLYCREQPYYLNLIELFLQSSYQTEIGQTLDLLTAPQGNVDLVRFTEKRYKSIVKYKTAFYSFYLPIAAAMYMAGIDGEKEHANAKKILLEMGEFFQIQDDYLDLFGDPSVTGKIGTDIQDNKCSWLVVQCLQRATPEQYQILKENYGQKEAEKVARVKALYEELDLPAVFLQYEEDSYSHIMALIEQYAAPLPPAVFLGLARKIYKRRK
Excerpt: as §1

[2] = tested on: NCI-H460 (lung large cell); experiment: NCI-H460 cell growth inhibition (MTT); type: cell-based, human; conditions: Table 1, experimental; for IC50: Homo sapiens, NCI-H460, read-out: NCI-H460 pIC50 (converted)
Excerpt: as §2, §3

[3] = tested on: MCF-7 (breast adenocarcinoma); experiment: MCF-7 cell growth inhibition (MTT), incl. FOH/GGOH rescue; type: cell-based, human; conditions: for IC50: Homo sapiens, MCF7
Excerpt: as §2
GraphPad PRISM® version 4.0 software for windows (GraphPad Software Inc., San Diego, Calif., www.graphpad.com) was used to fit the data to a rectangular hyperbolic function: I=(ImaxC)/(IC50+C);
For the “rescue” experiments, stock solutions of FOH or GGOH were prepared (in ethanol) and the requisite amounts added to the incubation media to produce a fixed 20 μM concentration.

[4] = molecular target: T3, human recombinant geranylgeranyl diphosphate synthase (hGGPPS) (Homo sapiens, UniProt O95749); experiment: Human recombinant GGPPS inhibition (radiometric assay); type: biochemical; conditions: Table 1, experimental; for Ki: read-out: GGPPS pKi (converted)
T3 construct: made in house
T3 sequence (O95749 1-300): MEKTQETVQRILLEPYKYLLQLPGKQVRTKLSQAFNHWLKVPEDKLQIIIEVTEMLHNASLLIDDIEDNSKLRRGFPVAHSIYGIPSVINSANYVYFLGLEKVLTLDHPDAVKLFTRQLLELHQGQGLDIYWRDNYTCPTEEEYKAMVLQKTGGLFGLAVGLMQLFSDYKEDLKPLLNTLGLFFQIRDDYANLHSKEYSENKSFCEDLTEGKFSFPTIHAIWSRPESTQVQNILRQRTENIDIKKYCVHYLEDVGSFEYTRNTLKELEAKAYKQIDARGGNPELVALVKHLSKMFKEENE
Protocol: as §1
Human recombinant GGPPS inhibition. The purification of human recombinant geranylgeranyl diphosphate synthase (hGGPPS) followed the protocol reported previously^2. GGPPS inhibition by bisphosphonates was determined using the radiometric assay reported previously^2 with slight modification. […] IPP and incubated at 37° C. for 20 min. The reaction was terminated by the addition of 75 μL of HCl/MeOH. Following a second 20 min incubation at 37° C. to effectively hydrolyze the allylic pyrophosphates, the reaction mixtures were neutralized by the addition of 75 μL of 6 N NaOH and extracted with 500 μL of hexane. 200 μL of the organic phase was transferred to a scintillation vial for counting. The IC50 values were obtained by fitting the data to the dose-response curve in Origin 6.1 (OriginLab Corp., Northampton, Mass., www.OriginLab.com).

T. brucei FPPS = T. brucei FPPS inhibition; type: biochemical, Trypanosoma brucei; conditions: Table 9
[5] = Table 1, experimental, read-out: MCF-7 pIC50 (converted)
[6] = Table 2, -log10(value, M), read-out: MCF-7 Cell pIC50 (converted)

Row | Structure (SMILES) | γδ T Cell Avg pED50 (M) (Vγ2Vδ2 T cells) | DPPS pKi (human DPPS) | SF-268 pIC50 (M) [1] [M] | FPPS pKi (M) (human FPPS) | NCI-H460 pIC50 (M) [2] [M] | MCF-7 pIC50 (M) ([3]; Table 1, experimental) | MCF-7 Cell pIC50 (M) ([3]; Table 2, -log10(value, M)) | also measured
1 | O=P([O-])(O)C(O)(C[n+]1ccccc1)P(=O)(O)O (centres unmarked) [BPH-278] | 4.20 | 7.2 | 4.3 | 8.6 | 4.1 | 4.1 | 4.10 | 
2 | O=P([O-])(O)C(O)(C[n+]1cccc(-c2c[nH]cn2)c1)P(=O)(O)O (centres unmarked) [BPH-679] | 3.34 | 6 | 4.5 | 8.2 | 4.3 | 4.4 | 4.65 | GGPPS pKi (M) [4]: 5.0 M
3 | C[S+](C)CC(O)(P(=O)(O)O)P(=O)(O)O [BPH-527, (2-Hydroxy-2,2-bis-phosphono-ethyl)-dimethyl-sulfonium] | 3.87 |  |  |  |  |  | 3.36 | IC50 (T. brucei FPPS): 780 nM; IC50 (human FPPS): 1030 nM
4 | C[S+](C)CCC(O)(P(=O)([O-])O)P(=O)(O)O (centres unmarked) [BPH-540] | 3.59 |  |  |  |  |  | 2.68 | IC50 (T. brucei FPPS): 11300 nM; IC50 (human FPPS): 9000 nM
5 | CCCCCCCCc1cc[n+](CC(P(=O)([O-])O)P(=O)(O)O)cc1 (centres unmarked) [BPH-717] |  |  |  |  |  |  |  | Ki (human DPPS): 79.4 nM; IC50 [1]: 631 nM; Ki (human FPPS): 20 nM; IC50 [2]: 631 nM; IC50 [3, 5]: 501 nM
6 | CCCCCCCOc1ccc[n+](CC(P(=O)([O-])O)P(=O)(O)O)c1 (centres unmarked) [BPH-722] |  |  |  |  |  |  |  | EC50 (Vγ2Vδ2 T cells): 27500 nM; Ki (human DPPS): 6.31 nM; IC50 [1]: 1000 nM; Ki [4]: 63.1 nM; IC50 [2]: 501 nM; IC50 [3, 5]: 2510 nM; IC50 [3, 6]: 468 nM
7 | O=P([O-])(O)C(C[n+]1cccc(-c2ccccc2)c1)P(=O)(O)O (centres unmarked) [BPH-472] | 4.07 | 7.1 | 4.3 | 8.6 | 4.3 | 4.4 | 4.46 | GGPPS pKi (M) [4]: 6.6 M
8 | O=P([O-])(O)C(O)(C[n+]1cccc(-c2ccccc2)c1)P(=O)(O)O (centres unmarked) [BPH-300] |  | 6.9 | 4.5 | 8.3 | 4.5 | 4.4 |  | 
9 | CCCCCCCCCCCCCC[S+](C)CC(P(=O)([O-])O)P(=O)(O)O (centres unmarked) [BPH-694] | 6.20 | 6.6 | 5.9 | 7.1 | 6.0 | 4.9 | 6.69 | 
10 | C[P+](C)(C)CC(O)(P(=O)([O-])O)P(=O)(O)O (centres unmarked) [BPH-536] | 3.72 |  |  |  |  |  | 3.24 | IC50 (T. brucei FPPS): 26100 nM; IC50 (human FPPS): 12100 nM
11 | C[As+](C)(C)CC(O)(P(=O)([O-])O)P(=O)(O)O (centres unmarked) [BPH-560] | 3.37 |  |  |  |  |  | 2.71 | IC50 (T. brucei FPPS): 275000 nM; IC50 (human FPPS): 1130 nM
12 | CC(C)CCCC(C)CCOc1ccc[n+](CC(P(=O)([O-])O)P(=O)(O)O)c1 (centres unmarked) [BPH-728] | 5.28 | 6.3 | 4.9 | 6.8 | 4.6 | 4.5 | 5.59 | 
13 | Cc1ccc[n+](CC(P(=O)([O-])O)P(=O)(O)O)c1 (centres unmarked) [BPH-474] | 3.85 | 6.9 | 4.1 | 8.4 | 4.2 | 4.1 | 4.42 | 
14 | CCCCCCCCc1ccc[n+](CC(P(=O)([O-])O)P(=O)(O)O)c1 (centres unmarked) [BPH-637] |  |  |  |  |  |  |  | EC50 (Vγ2Vδ2 T cells): 12600 nM; Ki (human DPPS): 501 nM; IC50 [1]: 1260 nM; Ki [4]: 39.8 nM; IC50 [2]: 2000 nM; IC50 [3, 5]: 251 nM; IC50 [3, 6]: 219 nM
15 | CCCCC[S+](C)CC(P(=O)([O-])O)P(=O)(O)O (centres unmarked) [BPH-684] |  |  |  |  |  |  |  | EC50 (Vγ2Vδ2 T cells): 126000 nM; Ki (human DPPS): 100 nM; IC50 [1]: 200000 nM; Ki (human FPPS): 10 nM; Ki [4]: 251 nM; IC50 [2]: 158000 nM; IC50 [3, 5]: 251000 nM; IC50 [3, 6]: 129000 nM
16 | CCCCCCCCCCc1ccc[n+](CC(P(=O)([O-])O)P(=O)(O)O)c1 (centres unmarked) [BPH-638] |  |  |  |  |  |  |  | EC50 (Vγ2Vδ2 T cells): 1700 nM; Ki (human DPPS): 501 nM; IC50 [1]: 200 nM; Ki (human FPPS): 15.8 nM; IC50 [2]: 158 nM; IC50 [3, 5]: 158 nM; IC50 [3, 6]: 170 nM
17 | CCOCCOCCCc1ccc[n+](CC(P(=O)([O-])O)P(=O)(O)O)c1 (centres unmarked) [BPH-727] | 3.77 | 6.8 | 3.7 | 8.2 | 3.5 | 3.5 | 3.62 | 
18 | O=P([O-])(O)C(C[n+]1cccc(Br)c1)P(=O)(O)O (centres unmarked) [BPH-483] | 4.04 | 6.8 | 4.0 | 8.5 | 4.1 | 4.0 | 3.84 | 
